Test results as given in ChEMBL document CHEMBL1136459, “New antibacterial tetrahydro-4(2H)-thiopyran and thiomorpholine S-oxide and S,S-dioxide phenyloxazolidinones” (Bioorg Med Chem Lett, 2003).
≈ marks a conversion by molar mass, not a printed value.

Key:
Moraxella catarrhalis [1] = experiment: In vitro antibacterial activity against Moraxella catarrhalis strains 30607 and 30603 (MC).; assay type: functional
Staphylococcus aureus [2] = experiment: In vitro antibacterial activity against Staphylococcus aureus strains UC12673, UC9213, ATCC 29213, and UC9271 (SA); range is 4-16; assay type: functional
Enterococcus faecium = experiment: In vitro antibacterial activity against vancomycin-resistant Enterococcus faecium UC12712 (VRE).
Haemophilus influenzae [3] = experiment: In vitro antibacterial activity against Haemophilia influenzae strains 30063 and ATCC 31517 (HI); range is 16-32; assay type: functional
Streptococcus pneumoniae [4] = experiment: In vitro antibacterial activity against Streptococcus pneumoniae strains ATCC6305 and 31573 (SPN).
Staphylococcus aureus [5] = experiment: In vitro antibacterial activity against Linezolid resistance Staphylococcus aureus ATCC 29213 (LRSA)
Haemophilus influenzae [6] = experiment: In vitro antibacterial activity against Haemophilia influenzae strains ATCC 30063 and ATCC 31517; assay type: functional
Staphylococcus aureus [7] = experiment: In vitro antibacterial activity against linezolid-resistant Staphylococcus aureus ATCC 29213 (LRSA).; assay type: functional
Streptococcus pneumoniae [8] = experiment: In vitro antibacterial activity against Streptococcus pneumoniae strains ATCC 6305 and 31573 (SPN); range is 0.5-1
Staphylococcus aureus [9] = experiment: In vitro antibacterial activity against Staphylococcus aureus strains UC12673, UC9213, ATCC 29213, and UC9271 (SA); range is 1-2; assay type: functional
[10] = test system: Staphylococcus epidermidis; experiment: In vitro antibacterial activity against Staphylococcus epidermidis strains UC12084, 30031, and CDC-CNS90 (SE); range is 0.5-1; assay type: functional
Haemophilus influenzae [11] = experiment: In vitro antibacterial activity against Haemophilia influenzae strains 30063 and ATCC 31517 (HI); range is 4-16; assay type: functional
Streptococcus pneumoniae [12] = experiment: In vitro antibacterial activity against Streptococcus pneumoniae strains ATCC 6305 and 31573 (SPN); range is 1-2
Moraxella catarrhalis [13] = experiment: In vitro antibacterial activity against Moraxella catarrhalis strains 30607 and 30603 (MC); range is 8-16; assay type: functional
[14] = test system: Staphylococcus epidermidis; experiment: In vitro antibacterial activity against Staphylococcus epidermidis strains UC12084, 30031, and CDC-CNS90 (SE); range is 0.13-2; assay type: functional
Staphylococcus aureus [15] = experiment: In vitro antibacterial activity against Staphylococcus aureus strains UC12673, UC9213, ATCC 29213, and UC9271 (SA); assay type: functional
[16] = test system: Staphylococcus epidermidis; experiment: In vitro antibacterial activity against Staphylococcus epidermidis strains UC12084, 30031, and CDC-CNS90 (SE); assay type: functional
Streptococcus pneumoniae [17] = experiment: In vitro antibacterial activity against Streptococcus pneumoniae strains ATCC 6305 and 31573 (SPN); range is 32-64; assay type: functional
[18] = test system: Staphylococcus epidermidis; experiment: In vitro antibacterial activity against Staphylococcus epidermidis strains UC12084, 30031, and CDC-CNS90 (SE); range is 32->64; assay type: functional

Work on `O=C(NC[C@H]1CN(c2ccc(N3CCS(=O)(=O)CC3)c(F)c2)C(=O)O1)C1CC1` yielded an MIC (Moraxella catarrhalis [1]) of 4 µg/mL (≈ 9.72 µM), an MIC (Staphylococcus aureus [2]) of 4 µg/mL (≈ 9.72 µM) and an MIC (Enterococcus faecium) of 4 µg/mL (≈ 9.72 µM). It also gave an MIC (Haemophilus influenzae [3]) of 16 µg/mL (≈ 38.9 µM), an MIC (Streptococcus pneumoniae [4]) of 2 µg/mL (≈ 4.86 µM) and an MIC (Staphylococcus aureus [5]) of 2 µg/mL (≈ 4.86 µM).
Molecule `CO/N=C/c1ccc(/C=C/C(=O)NC[C@H]2CN(c3ccc(N4CC[S+]([O-])CC4)c(F)c3)C(=O)O2)cc1` has an MIC (Haemophilus influenzae [6]) of over 64 µg/mL, an MIC (Staphylococcus aureus [7]) of 64 µg/mL (≈ 124 µM) and an MIC (Moraxella catarrhalis [1]) of 4 µg/mL (≈ 7.77 µM). For the same molecule, the MIC (Streptococcus pneumoniae [8]) was 0.5 µg/mL (≈ 0.972 µM), the MIC (Staphylococcus aureus [9]) was 1 µg/mL (≈ 1.94 µM) and the MIC (Enterococcus faecium) was 2 µg/mL (≈ 3.89 µM). It also gave an MIC [10] of 0.5 µg/mL (≈ 0.972 µM).
Work on `NC(=O)NC[C@H]1CN(c2ccc(C3CCS(=O)(=O)CC3)c(F)c2)C(=O)O1` yielded an MIC (Haemophilus influenzae [11]) of over 4 µg/mL, an MIC (Staphylococcus aureus [7]) of over 64 µg/mL and an MIC (Streptococcus pneumoniae [12]) of 1 µg/mL (≈ 2.59 µM). It also gave an MIC (Moraxella catarrhalis [13]) of over 8 µg/mL, an MIC (Enterococcus faecium) of 4 µg/mL (≈ 10.4 µM) and an MIC [14] of 0.13 µg/mL (≈ 0.337 µM). The MIC (Staphylococcus aureus [15]) was 16 µg/mL (≈ 41.5 µM).
Molecule `NCCC(O)C(=O)NC[C@H]1CN(c2ccc(C3CCS(=O)(=O)CC3)c(F)c2)C(=O)O1` (some centres not stated) has an MIC (Haemophilus influenzae [6]) of over 64 µg/mL, an MIC (Staphylococcus aureus [7]) of over 64 µg/mL and an MIC (Moraxella catarrhalis [1]) of over 64 µg/mL. The MIC [16] was over 64 µg/mL, the MIC (Staphylococcus aureus [15]) was over 64 µg/mL and the MIC (Streptococcus pneumoniae [17]) was 32 µg/mL (≈ 72.2 µM).
Molecule `CC(C)CCC(=O)NC[C@H]1CN(c2ccc(N3CC[S+]([O-])CC3)c(F)c2)C(=O)O1` has an MIC (Haemophilus influenzae [6]) of over 64 µg/mL, an MIC (Staphylococcus aureus [7]) of over 64 µg/mL and an MIC (Moraxella catarrhalis [1]) of over 64 µg/mL. The MIC [18] was 32 µg/mL (≈ 75.2 µM), the MIC (Enterococcus faecium) was over 64 µg/mL and the MIC (Staphylococcus aureus [15]) was at least 64 µg/mL.
